Data on 11 molecules can be found in US7151105B2, “Inhibitors of Hepatitis C virus RNA-dependent RNA polymerase, and compositions and treatments using the same” (Agouron Pharmaceuticals, Inc., priority 2004, dated 2006).

Molecules are shown by their SMILES. pIC50: −log10 of the molar value.

In this experiment the target is T1, Recombinant HCV polymerase (Hepatitis C virus genotype 1b, UniProt P26663).
T1 construct: Recombinant HCV polymerase was tested for its ability to perform primer/template-directed transcription
T1 sequence (P26663 2420-3010): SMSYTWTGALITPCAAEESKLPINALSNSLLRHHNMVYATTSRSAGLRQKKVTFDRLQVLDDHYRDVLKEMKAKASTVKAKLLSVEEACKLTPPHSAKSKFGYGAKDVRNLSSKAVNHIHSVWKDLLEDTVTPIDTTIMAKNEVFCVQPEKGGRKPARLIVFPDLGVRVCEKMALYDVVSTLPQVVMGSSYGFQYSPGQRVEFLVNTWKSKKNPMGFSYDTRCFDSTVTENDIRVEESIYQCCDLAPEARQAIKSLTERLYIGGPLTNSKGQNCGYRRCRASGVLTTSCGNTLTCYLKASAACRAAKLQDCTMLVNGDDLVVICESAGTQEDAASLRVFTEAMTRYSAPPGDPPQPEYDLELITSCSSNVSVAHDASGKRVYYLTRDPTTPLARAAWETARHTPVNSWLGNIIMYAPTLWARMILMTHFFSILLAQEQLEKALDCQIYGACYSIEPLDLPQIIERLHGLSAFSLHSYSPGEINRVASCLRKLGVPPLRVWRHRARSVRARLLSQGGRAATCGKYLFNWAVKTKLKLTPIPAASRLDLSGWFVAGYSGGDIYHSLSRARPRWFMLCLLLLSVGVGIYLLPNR
Nature of the experiment: biochemical. The settings on record: inhibition of polymerase-directed transcription; 30 min at 30° C; 30 nM enzyme; cpm data in triplicate. The method, boiled down:
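Primer/template-directed RNA synthesis by 2.5 pmol HCV polymerase on poly(rC)300/biotin-dG12 with 1 μM GTP plus α-32P-GTP, in pH 7.2 Tris buffer with 10 mM MgCl2, for 30 min at 30 °C. Products were filter-captured and counted, with 1% DMSO final. IC50 was fitted from triplicate cpm; percent inhibition was reported where IC50 was impractical.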
On to `CCc1cc(CCC2(C3CCCC3)CC(O)=C(Cc3nc4nc(C)cc(C)n4n3)C(=O)O2)ccc1CC#N` (single isomer, unassigned; enantiomer 1) [A(116), Enantiomer 1 of [4-(2-{2-Cyclopentyl-5-[(5,7-dimethyl[1,2,4]triazolo[1,5-a]pyrimidin-2-yl)methyl]-4-hydroxy-6-oxo-3,6dihydro-2H-pyran-2-yl}ethyl)-2-ethylphenyl]acetonitrile], for which the pIC50 is 8.30.
For the molecule `COc1cc(OC)c(CCC2(C3CCCC3)CC(O)=C(Cc3nc(-c4ccccn4)nn3C)C(=O)O2)cc1Cl` (centres unmarked) [B(16), 6-[2-(5-Chloro-2,4-dimethoxyphenyl)ethyl]-6-cyclopentyl-4-hydroxy-3-[(1-methyl-3-pyridin-2-yl-1H-1,2,4-triazol-5-yl)methyl]-5,6-dihydro-2H-pyran-2-one], the negative logarithm of the IC50 (pIC50) was 7.28.
Then `Cc1cc(C)n2nc(CC3=C(O)CC(CCc4ccc([C@@H](C)N)cc4)(C4CCCC4)OC3=O)nc2n1` (stereo partly drawn) [A(92), 6-(2-{4-[(1R)-1-Aminoethyl]phenyl}ethyl)-6-cyclopentyl-3-[(5,7-dimethyl[1,2,4]triazolo[1,5-a]pyrimidin-2-yl)methyl]-hydroxy-5,6-dihydro-2H-pyran-2-one], with 6.52; and `CCc1cc(CCC2(C3CCCC3)CC(O)=C(Cc3nc4nc(C)cc(C)n4n3)C(=O)O2)ccc1C` (centres unmarked) [A(111), 6-Cyclopentyl-3[(5,7-dimethyl[1,2,4]triazolo[1,5-a]pyrimidin-2-yl)methyl]-6-[2-(3-ethyl-4-methylphenyl)ethyl]-4-hydroxy-5,6dihydro-2H-pyran-2-one], with 8.30; and `CCc1cc(CCC2(C3CCCC3)CC(O)=C(Cc3nc4nc(C)cc(C)n4n3)C(=O)O2)ccc1OCCN` (centres unmarked) [A(71)], with 8.05.
The same measure for `CCc1cc(CCC2(C3CCCC3)CC(O)=C(Cc3nc4ncc(C)cn4n3)C(=O)O2)ccc1Cn1cccn1` (centres unmarked) [A(113), 6-Cyclopentyl-6-{2-[3-ethyl-4-(1H-pyrazol-1-ylmethyl)phenyl]ethyl}-4-hydroxy-3-[(6-methyl[1,2,4]triazolo[1,5-a]pyrimidin-2-yl)methyl]-5,6-dihydro-2H-pyran-2-one]: 8.15; for `COC(=O)c1ccc(CCC2(C3CCCC3)CC(=O)CC(=O)O2)cc1F` (centres unmarked) [B(5), Methyl 4-[2-(2-cyclopentyl-4,6-dioxotetrahydro-2H-pyran-2-yl)ethyl]-2-fluorobenzoate]: 4.66.
Consider `CCOc1cnc(CC)cc1CCC1(C2CCCC2)CC(O)=C(Cc2nc3ncc(C)cn3n2)C(=O)O1` (centres unmarked) [A(43), 6-Cyclopentyl-6-[2-(5-ethoxy-2-ethylpyridin-4-yl)ethyl]-4-hydroxy-3-[(6-methyl[1,2,4]triazolo[1,5-a]pyrimidin-2-yl)methyl]-5,6-dihydro-2H-pyran-2-one], for which the pIC50 is 8.10.
On to `CCc1cc(CCC2(C3CCCC3)CC(O)=C(Cc3nc4nc(C)cc(C)n4n3)C(=O)O2)cc(C)n1` (centres unmarked) [A(35), 6-Cyclopentyl-3-[(5,7-dimethyl[1,2,4]triazolo[1,5-a]pyrimidin-2-yl)methyl]-6-[2-(2-ethyl-6-methylpyridin-4-yl)ethyl]-4-hydroxy-5,6-dihydro-2H-pyran-2-one], for which the pIC50 was 8.05.
For the molecule `CCc1ccnc(CCC2(C3CCCC3)CC(O)=C(Cc3nc4ncc(C)cn4n3)C(=O)O2)c1` (centres unmarked) [A(16), 6-Cyclopentyl-6-[2-(4-ethylpyridin-2-yl)ethyl]-4-hydroxy-3-[(6-methyl[1,2,4]triazolo[1,5-a]pyrimidin-2-yl)methyl]-5,6-dihydro-2H-pyran-2-one], the negative-log IC50 (pIC50) is 7.26.
Turning to `Cc1cc(C)n2nc(CC3=C(O)CC(CCc4ccc(C(C)(C)NS(C)(=O)=O)c(F)c4)(C4CCCC4)OC3=O)nc2n1` (centres unmarked) [A(29), N-{1-[4-(2-{2-cyclopentyl-5-[(5,7-dimethyl[1,2,4]triazolo[1,5-a]pyrimidin-2-yl)methyl]-4-hydroxy-6-oxo-3,6-dihydro-2H-pyran-2-yl}ethyl)-2-fluorophenyl]-1-methylethyl}methanesulfonamide], the pIC50 was 7.77.

The pIC50 is −log10 of the IC50, conventionally taken in molar units.
